Experimental data from article PMC4521925, “17β-Hydroxysteroid Dehydrogenase Type 2 Inhibition: Discovery of Selective and Metabolically Stable Compounds Inhibiting Both the Human Enzyme and Its Murine Ortholog” (PLoS ONE, 2015).

How the values were obtained:
m17β-HSD2 = target: T1, m17β-HSD2 (Mus musculus, UniProt P51658); assay: Inhibition of m17β-HSD2 in cell-free assay; assay type: biochemical
T1 construct: The microsomal fraction (m17β-HSD2) was obtained from mouse liver as described for h17β-HSD2; tissue Pharmacelsus GmbH (mouse livers); host or cells: mouse liver, microsomal fraction
T1 sequence (P51658 1-381): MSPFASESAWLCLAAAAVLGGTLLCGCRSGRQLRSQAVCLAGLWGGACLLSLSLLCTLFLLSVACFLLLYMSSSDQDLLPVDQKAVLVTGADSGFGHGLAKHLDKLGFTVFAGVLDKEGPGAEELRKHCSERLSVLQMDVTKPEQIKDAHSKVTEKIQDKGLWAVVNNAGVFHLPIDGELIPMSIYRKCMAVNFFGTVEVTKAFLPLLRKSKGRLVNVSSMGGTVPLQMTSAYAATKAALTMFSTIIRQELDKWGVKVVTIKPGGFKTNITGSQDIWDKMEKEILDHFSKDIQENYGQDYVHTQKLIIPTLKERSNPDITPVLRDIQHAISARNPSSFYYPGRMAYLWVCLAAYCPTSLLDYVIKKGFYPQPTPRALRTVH
Outline: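 Mouse liver microsomal enzyme incubated with tritiated substrate, NAD+ [1500 μM] and inhibitor at 37 °C in 50 mM phosphate buffer with 20% glycerol, 1 mM EDTA, 1% DMSO final. Stopped after 20 min with HgCl2, steroids ether-extracted and quantified by HPLC radioflow detection; at least two independent experiments.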

h17β-HSD2 = target: T2, h17β-HSD2 (Homo sapiens, UniProt P37059); assay: Inhibition of h17β-HSD2 in cell-free assay; assay type: biochemical; set-up: from tissue; host or cells: human placenta, microsomal fraction; settings: for s.f. (selectivity factor) = IC50(17β-HSD1)/IC50(17β-HSD2): human enzymes, cell-free
T2 sequence (P37059 1-387): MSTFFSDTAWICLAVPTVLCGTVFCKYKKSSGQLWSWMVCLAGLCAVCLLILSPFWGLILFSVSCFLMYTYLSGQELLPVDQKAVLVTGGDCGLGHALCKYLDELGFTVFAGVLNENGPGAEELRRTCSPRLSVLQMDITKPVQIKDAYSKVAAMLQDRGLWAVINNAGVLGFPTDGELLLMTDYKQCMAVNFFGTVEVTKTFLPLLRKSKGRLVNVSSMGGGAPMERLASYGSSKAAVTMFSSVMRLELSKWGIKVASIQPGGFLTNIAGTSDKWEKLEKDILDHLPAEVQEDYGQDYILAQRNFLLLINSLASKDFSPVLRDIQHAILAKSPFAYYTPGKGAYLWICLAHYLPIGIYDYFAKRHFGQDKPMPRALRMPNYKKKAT

[1] = Metabolic stability in a cell-free assay (liver S9 fraction); assay type: in vitro ADME; settings: human liver S9 fraction 1 mg/ml, NADPH regenerating system, UDPGA, PAPS, 37°C, inhibitor 1 μM; for half-life at 1 μM: pooled liver S9 fraction, read-out: Inhibitor t1/2
Experimental: Compounds 7a, 8a, 16a, 19a, 22a, 27a and 27 were tested according to established method[33–35]For evaluation of phase I and II metabolic stability 1 μM compound was incubated with 1 mg/ml pooled mammalian liver S9 fraction (BD Gentest), 2 mM NADPH regenerating system, 1 mM UDPGA and 0.1 mM PAPS at 37°C for 0, 5, 15 and 60 minutes at a final volume of 100 μL. The incubation was stopped by precipitation of S9 enzymes with 2 volumes of cold acetonitrile containing internal standard. Concentration of the remaining test compound at the different time points was analyzed by LC-MS/MS and used to determine half-life (t1/2).

ERα = target: T3, ERα (Homo sapiens, UniProt P03372); assay: Estrogen receptor affinity in a cell-free assay (ERα); assay type: binding; settings: 1000-fold excess relative to E2; recombinant human ERα
T3 sequence (P03372 1-595): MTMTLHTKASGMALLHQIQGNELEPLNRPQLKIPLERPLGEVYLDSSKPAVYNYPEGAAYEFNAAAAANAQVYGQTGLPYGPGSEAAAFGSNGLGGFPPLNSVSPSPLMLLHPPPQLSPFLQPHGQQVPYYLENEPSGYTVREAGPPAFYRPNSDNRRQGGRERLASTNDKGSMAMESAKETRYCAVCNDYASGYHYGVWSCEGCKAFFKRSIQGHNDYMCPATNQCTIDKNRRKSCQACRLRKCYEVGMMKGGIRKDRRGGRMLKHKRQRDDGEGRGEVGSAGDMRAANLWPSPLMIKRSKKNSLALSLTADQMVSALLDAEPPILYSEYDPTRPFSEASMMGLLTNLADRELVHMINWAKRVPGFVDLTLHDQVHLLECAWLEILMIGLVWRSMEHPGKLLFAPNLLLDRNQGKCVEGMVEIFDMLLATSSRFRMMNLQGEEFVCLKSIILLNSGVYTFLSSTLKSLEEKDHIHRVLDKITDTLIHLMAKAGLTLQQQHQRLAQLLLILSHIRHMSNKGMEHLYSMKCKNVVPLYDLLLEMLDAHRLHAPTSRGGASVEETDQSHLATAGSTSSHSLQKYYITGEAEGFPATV
Experimental: The binding affinity of selected compounds to ERα and ERβ was determined according to the recommendations of the US Environmental Protection Agency (EPA) by their Endocrine Disruptor Screening Program (EDSP)[24] using recombinant human proteins.
The potential inhibitors were dissolved in DMSO (5% final concentration). […] After incubation, ligand-receptor complexes were selectively bound to hydroxyapatite (83.5 g/LinTE-buffer). The bound complex was washed three times and resuspended in ethanol. For radiodetection, scintillator cocktail (Quickszint 212, Zinsser Analytic, Frankfurt) was added and samples were measured in a liquid scintillation counter (1450 LSC & Luminescence Counter, Perkin Elmer).
After the assay was established and validated, a modification was made to increase throughput.

Row | SMILES | IC50 (m17β-HSD2) [µM] | IC50 (h17β-HSD2) [µM] | s.f. (selectivity factor) = IC50(17β-HSD1)/IC50(17β-HSD2) (h17β-HSD2) | half-life at 1 μM [1] [h] | displacement of E2 from ERα (ERα) [%] | inhibition at 1 µM (m17β-HSD2; read-out: % inh. at 1 μM m17β-HSD2) [%] | melting point [°C] | Inhibitor t1/2 [1]
1 | COc1cccc(N(C)C(=O)c2ccc(-c3cccc(C)c3)cc2)c1 [Compound 6a, N-(3-methoxyphenyl)-N,3'-dimethyl-[1,1'-biphenyl]-4-carboxamide] | 0.26 | 0.26 | 25 | 1.77 | ≤ 20 | – | – | –
2 | Cc1cccc(N(C)C(=O)c2ccc(-c3cccc(C)c3F)cc2)c1 [Compound 21a, 2'-Fluoro-N,3'-dimethyl-N-(m-tolyl)-[1,1'-biphenyl]-4-carboxamide] | – | 0.33 | 11 | – | ≤ 20 | 56 | 73 to 76 | –
3 | COc1cccc(N(C)C(=O)c2ccc(-c3ccc(C)c(C)c3)cc2)c1 [Compound 17a, N-(3-methoxyphenyl)-N,3',4'-trimethyl-[1,1'-biphenyl]-4-carboxamide] | 0.14 | 0.3 | 44 | 1.78 | ≤ 20 | – | – | –
4 | Cc1cccc(-c2ccc(C(=O)N(C)Cc3cccc(O)c3)cc2)c1F [Compound 25, 2'-Fluoro-N-(3-hydroxybenzyl)-N,3'-dimethyl-[1,1'-biphenyl]-4-carboxamide] | 0.19 | 0.26 | 118 | 0.1 | ≤ 20 | – | 123 to 126 | short half-life
